Here are results for 14 compounds from US8158647B2, “Substituted pyrrolopyridines and pyrazolopyridines as kinase modulators” (SGX Pharmaceuticals, Inc., priority 2007, dated 2012).

Experiment [1] addresses T1, purified and unphosphorylated T315I Abl kinase domain (ABL_T315I_0P) (Mus musculus, UniProt P00520, T315I).
T1 construct: The c-Abl T3151 KD (kinase domain) was purified as follows; Met-Ser-Leu (vector-derived residues) (N); made in house; host or cells: E. coli BL21(DE3) strains (Codon+RIL, or pSA0145 for the lambda phosphatase co-expression plasmid)
T1 sequence (P00520 242-493 T315I limits assumed): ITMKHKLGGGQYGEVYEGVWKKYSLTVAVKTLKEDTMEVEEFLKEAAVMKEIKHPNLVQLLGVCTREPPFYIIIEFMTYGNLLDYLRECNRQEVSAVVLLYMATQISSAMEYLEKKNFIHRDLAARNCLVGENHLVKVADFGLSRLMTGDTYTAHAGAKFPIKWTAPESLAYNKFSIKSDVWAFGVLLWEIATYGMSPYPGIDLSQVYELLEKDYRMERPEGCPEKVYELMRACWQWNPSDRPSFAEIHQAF
Description: c-Abl T315I (unphosphorylated kinase domain) pyruvate kinase/lactate dehydrogenase coupled enzyme assay. The format is biochemical. Particulars: 10 μM ATP. An excerpt: Although the first of these examples uses the kinase domain of a mutant form of Abl T315I (“Abl T315I KD”), the kinase assays may use various forms of mutant and wild type enzymes, including, for example, the entire protein, the kinase domain, or a portion thereof (e.g. Abl Y393F). The kinases used in the assays may also be of varying phosphorylation states. In the c-Abl example, a mutant kinase at a zero phosphorylation state was used.
c-Abl Pyruvate Kinase/Lactate Dehydrogenase Coupled Enzyme Assay
In the c-Abl Pyruvate Kinase (PK)/Lactate Dehydrogenase (LDH) Coupled Assay the protein kinase dependant phosphorylation of a substrate peptide was coupled to the oxidation of NADH. The oxidation of NADH to NAD+ was detected by monitoring a decrease in absorbance at 340 nm.
Materials: Abl substrate peptide=EAIYAAPFAKKK-OH (SEQ ID NO: 1) (Biopeptide, San Diego, Calif.); […]NADH (Sigma Cat#N-8129, FW=709.4); 2M MgCl2; 1M HEPES buffer, pH 7.5; Phosphoenolpyruvate (PEP) (Sigma Cat#P-7002, FW=234); Lactate dehydrogenase (LDH) (Worthington Biochemical Cat#2756); Pyruvate Kinase (PK) (Sigma Cat#P-9136); ATP (Sigma Cat#A-3377, FW=551); Greiner 384-well UV star plate; and purified and unphosphorylated T3151 Abl kinase domain.
Stock Solutions: 10 mM NADH (7.09 mg/ml in miliQH2O) made fresh daily; 10 mM Abl substrate peptide (13.4 mg/ml in miliQH2O) stored at −20° C.; 100 mM HEPES buffer, pH 7.5 (5 ml 1M stock+45 ml miliQH2O); 100mM MgCl2 (5 ml 2M MgCl2+95 ml dH2O); 100 mM PEP (23.4 mg/ml in dH2O) stored at −20° C.; 10mM ATP (5.51 mg/ml in dH2O) stored at −20° C. (diluted 50 μl into total of 10 ml miliQH2O daily=50 μM ATP working stock); 1000 U/ml PK (U/mg varies with lot) flash-frozen under liquid N2 and stored at −80° C.; and 1000 U/ml LDH (U/mg varies with lot) flash-frozen under liquid N2 and stored at −80° C.
Standard Assay Setup for 384-well format (50 μl reaction): 300 μM NADH; 10 mM MgCl2; 2 mM PEP; 45 U/ml PK; 60 U/ml LDH; 200 μM Abl substrate peptide; 2.5 μl test compound (in DMSO); 2 μg/ml Abl kinase domain; 10 μM ATP; 100 mM HEPES buffer. Positive controls contained DMSO with no test compound. Negative controls contained 5 μl of 0.5M EDTA (50 mM in the assay). The dephosphorylated form of the c-Abl T315I mutant was used in the biochemical screening assays. The kinase reaction was initiated at time t=0 by the addition of ATP.
Activity was measured by following the time-dependent loss of NADH by absorbance spectroscopy at 340 nm. The linear portion of the resulting progress curve was then analyzed by linear regression to get the activity in absorbance units/time, reported as the slope of that best fit line (moles/unit time can be calculated from using molar extinction coefficient for NADH at 340 nm, 6250M^−1 cm^−1).
Screening data was evaluated using the equation: Z′=1-[3*(σ++σ−)/|μ+−μ−|] (Zhang, et al., 1999 J Biomol Screening 4(2) 67-73), where μ denotes the mean and σ the standard deviation. The subscript designates positive or negative controls. The Z′ score for a robust screening assay should be ≧0.50. The typical threshold=μ+−3*σ+−. Any value that falls below the threshold was designated a “hit”.
Dose response was analyzed using the equation: y=min+{(max−min)/(1+10^[compound]−logIC50)}, where y is the observed initial slope, max=the slope in the absence of inhibitor, min=the slope at infinite inhibitor, and the IC50 is the [compound] that corresponds to ½ the total observed amplitude (Amplitude=max−min).
To measure modulation, activation, or inhibition of Abl KD, a test compound was added to the assay at a range of concentrations. Inhibitors may inhibit Abl KD activity at an IC50 in the micromolar range, the nanomolar range, or, for example, in the subnanomolar range.
An open-reading frame for c-Abl was amplified from a Mus musculus (mouse) cDNA library prepared from freshly harvested mouse liver using a commercially available kit (Invitrogen) by PCR using the following primers: […]
The c-Abl T3151 KD (kinase domain) was purified as follows. […]

The next experiment has as its target T2, ABL P210WT BAF3 cells (Homo sapiens, UniProt P00519).
T2 construct: ABL P210WT BAF3; fused on or other part: P11274 (Breakpoint cluster region protein)
The experiment can be described thus: 96-well XTT cell survival assay, BaF3 ABL P210WT. The format is cell-based. Conditions: ABL P210 WT, 72 hours, read-out: CELL BIO ABL P210WT BAF3 XTT (IC50). As for the experimental part: (§1) MV4-11 and THP cells were maintained in Iscove's Modified Dulbecco's Medium supplemented with 10% fetal bovine serum (FBS) and penicillin/streptomycin, Ba/F3 cells were maintained in RPMI 1640 supplemented with 10% FBS, penicillin/streptomycin and 5 ng/ml recombinant mouse IL-3.
(§2) Compounds were tested in the following assays in duplicate.
(§3) 96-well XTT assay: Cells (e.g. BaF3 315I, M3511, or E255K cells) were grown in growth media containing various concentrations of compounds (duplicates) on a 96-well plate for 72 hours at 37° C. The starting cell number was 5000-8000 cells per well and volume was 120 μl. At the end of the 72-hour incubation, 40 μl of XTT labeling mixture (50:1 solution of sodium 3′-[1-(phenylamino-carbonyl)-3,4-tetrazolium]-bis(4-methoxy-6-nitro) benzene sulfonic acid hydrate and Electron-coupling reagent: PMS (N-methyl dibenzopyrazine methyl sulfate) were added to each well of the plate. After an additional 2-6 hours of incubation at 37° C., the absorbance reading at 405 nm with background correction at 650 nm was measured with a spectrophotometer.

Another experiment addresses T3, ABL T315I BAF3 cells (Homo sapiens, UniProt P00519, T315I, cells depend on it).
T3 construct: ABL T315I BAF3; fused on or other part: P11274 (Breakpoint cluster region protein)
The experiment can be described thus: 96-well XTT cell survival assay, BaF3 ABL T315I. The format is cell-based. Particulars: 72 hours, read-out: CELL BIO ABL T315I BAF3 XTT (IC50). As for the experimental part: as §1, §2, §3
(Tetrazolium assays rely on reduction of a dye to a coloured formazan, in cell work by metabolically active cells.)

Structures are written as SMILES.

As for `CN(C)C(=O)C(O)c1cncc(-c2cnc3[nH]cc(-c4cccc(F)c4F)c3c2Cl)c1` (stereo not drawn) [2-{5-[4-Chloro-3-(2,3-difluoro-phenyl)-1H-pyrrolo[2,3-b]pyridin-5-yl]-pyridin-3-yl}-2-hydroxy-N,N-dimethyl-acetamide], the “ABL_T315I_0P (IC50)” value in experiment [1] is given as “D (<0.01 μM)”. Besides, the GI50 at ABL P210WT BAF3 cells and at ABL T315I BAF3 cells was 100 to 1000 nM throughout.

Turning to `OC(c1cncc(-c2cnc3[nH]cc(-c4ccccc4F)c3c2Cl)c1)c1ncco1` (stereo not drawn) [{5-[4-Chloro-3-(2-fluoro-phenyl)-1H-pyrrolo[2,3-b]pyridin-5-yl]-pyridin-3-yl}-oxazol-2-yl-methanol], the “ABL_T315I_0P (IC50)” value in experiment [1] is on record as “D (<0.01 μM)”. Moreover, the GI50 at ABL P210WT BAF3 cells and at ABL T315I BAF3 cells was 100 to 1000 nM throughout.

Take `COc1ccc(F)cc1-c1c[nH]c2ncc(-c3cncc(C(=O)N(C)C)n3)c(Cl)c12` [6-[4-Chloro-3-(5-fluoro-2-methoxy-phenyl)-1H-pyrrolo[2,3-b]pyridin-5-yl]-pyrazine-2-carboxylic acid dimethylamide]: in experiment [1], the “ABL_T315I_0P (IC50)” value is “D (<0.01 μM)”. For the same compound, the GI50 at ABL P210WT BAF3 cells and at ABL T315I BAF3 cells was 10 to 100 nM in each case.

Regarding `COc1ccc(F)cc1-c1c[nH]c2ncc(-c3cnc(N)c(C(=O)N(C)C)n3)c(Cl)c12` [3-amino-6-[4-chloro-3-(5-fluoro-2-methoxy-phenyl)-1H-pyrrolo[2,3-b]pyridin-5-yl]-pyrazine-2-carboxylic acid dimethylamide], in experiment [1], the “ABL_T315I_0P (IC50)” value is “D (<0.01 μM)”. In addition, the values for the GI50 on ABL P210WT BAF3 cells and at ABL T315I BAF3 cells were less than 10 nM and 10 to 100 nM, respectively.

For `OC(c1cccc(-c2cnc3[nH]cc(-c4ccccc4F)c3c2Cl)c1)c1ncco1` (stereo not drawn) [{3-[4-Chloro-3-(2-fluoro-phenyl)-1H-pyrrolo[2,3-b]pyridin-5-yl]-phenyl}-oxazol-2-yl-methanol], in experiment [1], the “ABL_T315I_0P (IC50)” value is given as “D (<0.01 μM)”. Further, the GI50 on ABL P210WT BAF3 cells and on ABL T315I BAF3 cells was greater than 1000 nM throughout.

On to `CN(C)C(=O)C(O)c1cncc(-c2cnc3[nH]cc(-c4ccc(F)cc4)c3c2Cl)c1` (stereo not drawn) [2-{5-[4-Chloro-3-(4-fluoro-phenyl)-1H-pyrrolo[2,3-b]pyridin-5-yl]-pyridin-3-yl}-2-hydroxy-N,N-dimethyl-acetamide], for which the “ABL_T315I_0P (IC50)” value in experiment [1] is recorded as “C (0.1-0.01 μM)”. The GI50 at ABL P210WT BAF3 cells is 100 to 1000 nM; on ABL T315I BAF3 cells, greater than 1000 nM.

For the compound `CN(C)C1CCN(C(=O)c2cc(-c3cnc4[nH]cc(-c5cc(F)ccc5F)c4c3Cl)cnc2N)C1` (stereo not drawn) [{2-Amino-5-[4-chloro-3-(2,5-difluoro-phenyl)-1H-pyrrolo[2,3-b]pyridin-5-yl]-pyridin-3-yl}-(3-dimethylamino-pyrrolidin-1-yl)-methanone], in experiment [1], the “ABL_T315I_0P (IC50)” value is “D (<0.01 μM)”. Besides, the GI50 at ABL P210WT BAF3 cells and on ABL T315I BAF3 cells was 100 to 1000 nM each time.

For `Nc1ncc(-c2cnc3[nH]cc(-c4cccc(F)c4)c3c2Cl)cc1C(=O)N1CCOCC1` [{2-Amino-5-[4-chloro-3-(3-fluoro-phenyl)-1H-pyrrolo[2,3-b]pyridin-5-yl]-pyridin-3-yl}-morpholin-4-yl-methanone], the “ABL_T315I_0P (IC50)” value in experiment [1] is reported as “D (<0.01 μM)”. Further, the GI50 on ABL P210WT BAF3 cells and on ABL T315I BAF3 cells was 10 to 100 nM each time.

As to `COc1ccccc1-c1n[nH]c2ncc(-c3cncc(C(O)C(=O)N(C)C)c3)c(Cl)c12` (stereo not drawn) [2-{5-[4-Chloro-3-(2-methoxy-phenyl)-1H-pyrazolo[3,4-b]pyridin-5-yl]-pyridin-3-yl}-2-hydroxy-N,N-dimethyl-acetamide], the “ABL_T315I_0P (IC50)” value in experiment [1] is recorded as “C (0.1-0.01 μM)”. For the same compound, the GI50 on ABL P210WT BAF3 cells and at ABL T315I BAF3 cells was 100 to 1000 nM in each case.

With `CN(C)C(=O)C(O)c1cncc(-c2cnc3[nH]cc(-c4ccccc4F)c3c2Cl)c1` (stereo not drawn) [2-{5-[4-Chloro-3-(2-fluoro-phenyl)-1H-pyrrolo[2,3-b]pyridin-5-yl]-pyridin-3-yl}-2-hydroxy-N,N-dimethyl-acetamide], in experiment [1], the “ABL_T315I_0P (IC50)” value is listed as “D (<0.01 μM)”. Moreover, the GI50 on ABL P210WT BAF3 cells and on ABL T315I BAF3 cells was 100 to 1000 nM in each case.

Consider `CN(C)C(=O)c1cncc(-c2cnc3[nH]cc(-c4ccccc4Cl)c3c2Cl)c1` [5-[4-Chloro-3-(2-chloro-phenyl)-1H-pyrrolo[2,3-b]pyridin-5-yl]-N,N-dimethyl-nicotinamide], for which, in experiment [1], the “ABL_T315I_0P (IC50)” value is recorded as “D (<0.01 μM)”. In addition, the results for the GI50 at ABL P210WT BAF3 cells and on ABL T315I BAF3 cells were 100 to 1000 nM and greater than 1000 nM, respectively.

As for `COc1ccc(F)cc1-c1c[nH]c2ncc(-c3cncc(C(=O)N(C)C)c3)c(Cl)c12` [5-[4-Chloro-3-(5-fluoro-2-methoxy-phenyl)-1H-pyrrolo[2,3-b]pyridin-5-yl]-N,N-dimethyl-nicotinamide], the “ABL_T315I_0P (IC50)” value in experiment [1] is recorded as “D (<0.01 μM)”. In addition, the GI50 at ABL P210WT BAF3 cells was less than 10 nM; at ABL T315I BAF3 cells, 10 to 100 nM.

Turning to `CNC(=O)c1cncc(-c2cnc3[nH]cc(-c4ccccc4F)c3c2Cl)c1` [5-[4-Chloro-3-(2-fluoro-phenyl)-1H-pyrrolo[2,3-b]pyridin-5-yl]-N-methyl-nicotinamide], the “ABL_T315I_0P (IC50)” value in experiment [1] is “C (0.1-0.01 μM)”. The GI50 on ABL P210WT BAF3 cells and at ABL T315I BAF3 cells was greater than 1000 nM each time.

In the case of `CN(C)C(=O)c1cncc(-c2cnc3[nH]cc(-c4ccccc4)c3c2Cl)c1` [5-(4-Chloro-3-phenyl-1H-pyrrolo[2,3-b]pyridin-5-yl)-N,N-dimethyl-nicotinamide], the “ABL_T315I_0P (IC50)” value in experiment [1] is “D (<0.01 μM)”. For the same compound, the GI50 at ABL P210WT BAF3 cells and on ABL T315I BAF3 cells was greater than 1000 nM throughout.
